Results from US8685974B2 (Bayer CropScience AG, priority 2009, dated 2014).
Read-outs that look alike come from different tables or passages of the source. Marks after values point to notes of the source that are not given here.

Legend:
Fusarium proliferatum = experiment: Production of fumonisin FB1 by Fusarium proliferatum (microtiter plate, HPLC-MS/MS and OD620); format: cell-based; details: for % inhibition FB1 production at 50 μM: 5 days at 20° C., HPLC-MS/MS; for % inhibition fungal growth at 50 μM: Fusarium proliferatum, OD620 at start and after 5 days
Pyrenophora teres = experiment: In vivo test on Pyrenophora teres (barley net blotch); details: dose of 500 ppm; barley plants; grading 12 days after contamination
In short: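 Scoring is done 12 days after spore spraying (12,000 spores/ml, from 12-day-old culture), relative to water-treated controls. Inoculation follows by 24 h a preventive spray of the aqueous-diluted formulation onto 1-leaf Plaisant barley raised at 12° C.; infection holds 24 h at about 20° C./100% RH, then 12 days at 80% RH.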

Alternaria solani = experiment: Alternaria test (tomato) / protective; format: in vivo; details: 500 ppm active compound, protective spray, evaluated 7 days after inoculation
In short: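 Efficacy scored 7 days after inoculation, where 100% means no infection and 0% matches the untreated control. Test plants were young tomatoes given a protective spray at the stated rate, compound dissolved in DMF plus emulsifier and diluted with water. Incubation at 20° C, 96% relative humidity.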

Fusarium graminearum = format: cell-based; details: 50 μM; for % Inhibition of DON/AcDON at 50 μM: 7 days at 28° C.
Leptosphaeria nodorum = Leptosphaeria nodorum test (wheat) / protective; format: in vivo; details: 500 ppm active compound, protective spray, evaluated 7-9 days after inoculation
In short: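 Young wheat plants sprayed protectively with compound in DMF/alkylaryl polyglycol ether emulsion diluted in water, then kept in greenhouse at 90% rel. humidity, 22° C. Scored 7-9 days after inoculation as % efficacy, 0% equal to untreated control and 100% no infection.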

[1] = logP by HPLC on reversed phase columns, method [a] (pH 2.3); format: physicochemical; details: method [a]: pH 2.3, 0.1% phosphoric acid and acetonitrile as eluent; main isomer

SMILES	log p (pH 2.7)	efficacy (Alternaria solani) [%]	% Inhibition of fungal growth at 50 μM (Fusarium graminearum) [%]	% Inhibition of DON/AcDON at 50 μM (Fusarium graminearum) [%]	efficacy (Leptosphaeria nodorum) [%]	log p [1]	other results
CC(=O)n1cc(-c2ccncn2)c(-c2ccc(Cl)s2)n1 [Example 4]	2.92^[b]						% inhibition FB1 production at 50 μM (Fusarium proliferatum): 89%; % inhibition fungal growth at 50 μM (Fusarium proliferatum): 22%
Clc1ccc(-c2nn(Cc3ccccc3)cc2-c2ccncn2)s1 [Example 5]	3.41^[b]						logP value of the minor isomer (in parenthesis in column Isomer ratio [d]) (minor isomer, main value of the example measured by method [b], pH 2.7): (3.17); protection (Pyrenophora teres): 70%; % inhibition FB1 production at 50 μM (Fusarium proliferatum): 81%; % inhibition fungal growth at 50 μM (Fusarium proliferatum): 0%
CCC(C)n1cc(-c2ccnc(C#N)c2)c(-c2ccc(Cl)s2)n1 (stereo not drawn) [Example 97]	4.41^[b]	90					% inhibition FB1 production at 50 μM (Fusarium proliferatum): 99%; % inhibition fungal growth at 50 μM (Fusarium proliferatum): 17%
CC(C)Cn1cc(-c2ccnc(NC(=O)C(C)C)n2)c(-c2ccc(Cl)s2)n1 [Example 98]							log p (pH 2.3): 3.67^[a]; % inhibition FB1 production at 50 μM (Fusarium proliferatum): 97%; % inhibition fungal growth at 50 μM (Fusarium proliferatum): 4%
COc1ccc(Cn2nc(-c3ccc(Cl)s3)c(-c3ccncc3)c2C2CC2)cc1 [Example 101]	2.69^[b]						% inhibition FB1 production at 50 μM (Fusarium proliferatum): 87%; % inhibition fungal growth at 50 μM (Fusarium proliferatum): 0%
CCC(C)n1cc(-c2ccncc2)c(-c2ccc(F)s2)n1 (stereo not drawn) [Example 106]	1.78^[b]	100	98	99			% inhibition FB1 production at 50 μM (Fusarium proliferatum): 98%; % inhibition fungal growth at 50 μM (Fusarium proliferatum): 39%
CCC(C)n1ncc(-c2ccncc2)c1-c1ccc(F)s1 (stereo not drawn) [Example 107]	1.69^[b]		86	100			% inhibition FB1 production at 50 μM (Fusarium proliferatum): 80%; % inhibition fungal growth at 50 μM (Fusarium proliferatum): 1%
CC(C)n1cc(-c2ccncc2)c(-c2ccc(F)s2)n1 [Example 108]	1.53^[b]	100	99	100			% inhibition FB1 production at 50 μM (Fusarium proliferatum): 100%; % inhibition fungal growth at 50 μM (Fusarium proliferatum): 25%
CCC(C)n1cc(-c2ccnc(NC(C)=O)c2)c(-c2ccc(Cl)s2)n1 (stereo not drawn) [Example 110]	2.94^[b]	95	99	100	95		protection (Pyrenophora teres): 100%; % inhibition FB1 production at 50 μM (Fusarium proliferatum): 99%; % inhibition fungal growth at 50 μM (Fusarium proliferatum): 86%
CCC(=O)Nc1cc(-c2cn(C(C)CC)nc2-c2cc(Cl)cs2)ccn1 (stereo not drawn) [Example 164, N-{4-[1-sec-Butyl-3-(4-chloro-2-thienyl)-1H-pyrazol-4-yl]pyridin-2-yl}propanamide]		90			95		chromatographic logP (physchem; pH 2.7): 3.07; chromatographic logP (physchem; pH 7.8): 3.59; protection (Pyrenophora teres): 100%
CCC(C)n1cc(-c2ccncc2)c(-c2cc(Cl)cs2)n1 (stereo not drawn) [Example 167, 4-[1-sec-Butyl-3-(4-chloro-2-thienyl)-1H-pyrazol-4-yl]pyridine]		90			90		chromatographic logP (physchem; pH 2.7): 1.86; logP value of the minor isomer (pH 2.7): (1.76); protection (Pyrenophora teres): 95%
CCC(=O)Nc1cc(-c2cn(CC(C)C)nc2-c2ccc(Cl)s2)ccn1 [Example 396]		100	30	100		3.33^[a]	protection (Pyrenophora teres): 70%
CC(C)Cn1cc(-c2ccnc(NC(=O)C(C)C)c2)c(-c2ccc(Cl)s2)n1 [Example 397]		100	32	97		3.83^[a]	protection (Pyrenophora teres): 90%
CC(C)Cn1cc(-c2ccnc(O)n2)c(-c2ccc(Cl)s2)n1 [Example 398]						2.62^[a]	
Cc1cn(-c2cc(-c3cn(CC(C)C)nc3-c3ccc(Cl)s3)ccn2)cn1 [Example 399]		78	0	90		2.56^[a]	
CCC(C)n1cc(-c2ccncc2)c(-c2ccc(C(F)(F)F)s2)n1 (stereo not drawn) [Example 400]			0	99		2.58^[a]	
CC(C)n1cc(-c2ccncc2)c(-c2ccc(C(F)(F)F)s2)n1 [Example 401]		78	0	99		2.2^[a]	

SMILES	log p (pH 2.7)	efficacy (Alternaria solani) [%]	% Inhibition of fungal growth at 50 μM (Fusarium graminearum) [%]	% Inhibition of DON/AcDON at 50 μM (Fusarium graminearum) [%]	efficacy (Leptosphaeria nodorum) [%]	log p [1]	other results
FC(F)(F)c1ccc(-c2c(-c3ccncc3)cnn2C2CCCCO2)s1 (stereo not drawn) [Example 403]						1.94^[a]	
CC(C)Cn1cc(-c2ccncc2)c(-c2ccc(Br)s2)n1 [Example 405]	2.1^[b]	94	90	99	94		logP value of the minor isomer (pH 2.7): (1.98); protection (Pyrenophora teres): 70%
CC(C)Cn1cc(-c2ccncc2)c(-c2cccs2)n1 [Example 407]	1.5^[b]	90	99	100	94		protection (Pyrenophora teres): 90%
Brc1ccc(-c2n[nH]cc2-c2ccncc2)s1 [Example 408]		70	0	97	78	0.94^[a]	
c1cc(-c2c[nH]nc2-c2cc3ccsc3s2)ccn1 [Example 409]					78	1.13^[a]	
CC(=O)Nc1nccc(-c2cn(CC(C)C)nc2-c2ccc(Cl)s2)n1 [Example 410]			0	83	94	3.04^[a]	
CC(C)Cn1cc(-c2ccnc(NC(C)C)n2)c(-c2ccc(Cl)s2)n1 [Example 411]			98	99		4.34^[a]	
CC(C)Cn1nc(C2CC2)c(-c2ccncc2)c1-c1ccc(Cl)s1 [Example 413]					70	2.61^[a]	
CC(C)Cn1nc(-c2ccc(Cl)s2)c(-c2ccncc2)c1C1CC1 [Example 414]			11	84		2.7^[a]	
CCC(C)n1nc(C2CC2)c(-c2ccncc2)c1-c1ccc(Cl)s1 (stereo not drawn) [Example 415]						2.73^[a]	
CCC(C)n1nc(-c2ccc(Cl)s2)c(-c2ccncc2)c1C1CC1 (stereo not drawn) [Example 416]			8	91	70	2.75^[a]	
CC(C)n1nc(C2CC2)c(-c2ccncc2)c1-c1ccc(Cl)s1 [Example 417]					80	2.44^[a]	
CC(C)n1nc(-c2ccc(Cl)s2)c(-c2ccncc2)c1C1CC1 [Example 418]						2.44^[a]	
CC#Cc1[nH]nc(-c2ccc(Cl)s2)c1-c1ccncc1 [Example 419]						1.44^[a]	
CC(C)Cn1cc(-c2ccnc3ccccc23)c(-c2ccc(Cl)s2)n1 [Example 421]		89				3.69^[a]	
CC(C)Cn1cc(-c2cc(O)ncn2)c(-c2ccc(Cl)s2)n1 [Example 422]						2.84^[a]	
